# Reference: patent US20070088031A1, “Novel chemical compounds” (priority 2003, published 2007)
# pIC50: −log10 of the molar value.
# Molecular target: GSK-3β (Homo sapiens, UniProt P49841)
# Assay: GSK-3 kinase scintillation proximity assay (SPA) with biotinylated glycogen synthase peptide
# Type: biochemical
# Details: 20 nM kinase, 2.5 uM ATP, 40 minutes at room temperature; pIC50 = -log IC50 in Molar; read-out: GSK-3 inhibition
# Text: The phosphorylated biotinylated peptide is then captured onto streptavidin coated scintillation proximity assay (SPA) beads from Amersham Technology, where the signal from the ^33P is amplified via the scintillant contained in the beads.
# GSK-3β, is commercially available or may be cloned and expressed in E coli using standard techniques to produce soluble, active protein. The production of active protein involves purification in two steps using Metal Chelate and Ion Exchange Chromatography. Protein eluting from Ion Exchange provides >90% pure product that may then be concentrated for use in high throughput screening.
# The kinase was assayed at a concentration of 20 nM final in 100 mM HEPES, pH 7.2 containing 10 mM magnesium chloride, 0.1 mg/mL bovine serum albumin, 1 mM dithiothreitol, 0.3 mg/mL heparin, 2.8 uM peptide substrate, 2.5 uM ATP, and 0.2 uCi/well γ^33P]-ATP. After 40 minutes incubation at room temperature, the reaction was stopped by addition of 100 mM EDTA and […] in 100 mM HEPES, pH7.2 followed by an additional solution of diluted Streptavidin coated SPA beads in PBS, pH 7.2 to give a final concentration of 0.25 mg of beads per assay well in a 96-well microtiter plate.
# 10 mM stock solutions of the compounds of the invention in 100% DMSO are generated as a first step in the screening process. The second step involves the creation of dose response plates where these compounds are diluted 10-fold in 100% DMSO to 1 mM concentrations and subsequently serially diluted 3-fold in 100% DMSO across the plate by automated liquid handling such that the final top concentration of inhibitor is 0.033 mM in the 30 uL kinase assay. The third step involves the creation of the assay plates. This is achieved by transferring 1 uL of the compounds to assay plates by automated liquid handling. The fourth step is to perform the assay as described and count the resulting plates in the Packard TopCount NXT microplate scintillation and luminescence counter. The final step is data acquisition and analysis where IC50 values are generated for each compound by normalizing curve data to the equation 100*(U1−C2)/(C1−C2) (where U1 is the cpm value, C2 is the background, and C1 is the maximum number of counts), then fitting the normalized data to the equation y=Vmax*(1−(x/(K+x))). The IC50 values were converted to pIC50 values, i.e., -log IC50 in Molar concentration.
# Chain of GSK-3β (P49841 whole entry, species assumed): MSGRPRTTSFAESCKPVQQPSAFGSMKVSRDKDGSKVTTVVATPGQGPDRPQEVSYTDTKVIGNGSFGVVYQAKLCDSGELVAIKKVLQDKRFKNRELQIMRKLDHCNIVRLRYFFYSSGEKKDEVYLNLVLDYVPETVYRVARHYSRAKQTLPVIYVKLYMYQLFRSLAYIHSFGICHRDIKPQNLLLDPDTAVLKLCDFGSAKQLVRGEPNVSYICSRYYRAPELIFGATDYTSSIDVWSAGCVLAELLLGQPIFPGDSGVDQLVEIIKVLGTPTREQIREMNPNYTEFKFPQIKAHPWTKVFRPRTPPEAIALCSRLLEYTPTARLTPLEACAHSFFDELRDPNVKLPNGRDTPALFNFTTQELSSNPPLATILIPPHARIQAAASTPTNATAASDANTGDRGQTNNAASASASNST
row,pIC50,Compound
1,7.00 to 8.00,"COc1ccc(-c2cc3c(NC(=O)C4CCCC4)ncnc3o2)cc1 [Example 3, Cyclopentanecarboxylic acid [6-(4-methoxy-phenyl)-furo[2,3-d]pyrimidin-4-yl]-amide]"
2,6.00 to 7.00,"COc1ccc(-c2cc3c(NC(=O)CCSC)ncnc3o2)cc1 [Example 4, N-[6-(4-Methoxy-phenyl)-furo[2,3-d]pyrimidin-4-yl]-3-methylsulfanyl-propionamide]"
3,< 6.00,"COc1ccc(-c2cc3c(NC(=O)C4CCCCC4)ncnc3o2)cc1 [Example 6, Cyclohexanecarboxylic acid [6-(4-methoxy-phenyl)-furo[2,3-d]pyrimidin-4-yl]-amide]"
4,> 8.00,"O=C(Nc1ncnc2oc(-c3cccnc3)cc12)C1CCCC1 [Example 20, Cyclopentanecarboxylic acid (6-pyridin-3-yl-furo[2,3-d]pyrimidin-4-yl)-amide]"
